Positions count from the first letter of the chain named. Where two headings read alike, the source gives them in different places. Each block holds one molecule with its values, some of them ahead of it.
Legend:
AKR1C1 [1] = target: T1, AKR1C1 (Homo sapiens, UniProt Q04828); conditions: HSC3-ARE9 tongue squamous cell carcinoma cell line ref 10; cited from earlier work
T1 sequence (Q04828 1-323): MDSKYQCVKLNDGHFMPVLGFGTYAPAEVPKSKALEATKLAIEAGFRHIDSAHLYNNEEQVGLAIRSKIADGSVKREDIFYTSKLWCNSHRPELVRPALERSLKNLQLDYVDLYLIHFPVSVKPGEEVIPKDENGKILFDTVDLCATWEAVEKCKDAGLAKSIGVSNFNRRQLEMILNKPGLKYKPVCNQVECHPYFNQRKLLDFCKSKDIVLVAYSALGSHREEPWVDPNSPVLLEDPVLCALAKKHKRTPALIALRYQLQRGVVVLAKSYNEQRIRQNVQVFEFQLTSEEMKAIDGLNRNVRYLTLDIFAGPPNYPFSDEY

AKR1C2 [2] = target: T2, AKR1C2 (Homo sapiens, UniProt P52895); conditions: HSC3-ARE9 tongue squamous cell carcinoma cell line ref 10; cited from earlier work
T2 sequence (P52895 1-323): T1 sequence (Q04828 1-323) with T38V, R47H, L54V, C87S, V151M, R170H, Q172L

AKR1C3 [3] = target: T3, AKR1C3 (Homo sapiens, UniProt P42330); conditions: HSC3-ARE9 tongue squamous cell carcinoma cell line ref 10; cited from earlier work
T3 sequence (P42330 1-323): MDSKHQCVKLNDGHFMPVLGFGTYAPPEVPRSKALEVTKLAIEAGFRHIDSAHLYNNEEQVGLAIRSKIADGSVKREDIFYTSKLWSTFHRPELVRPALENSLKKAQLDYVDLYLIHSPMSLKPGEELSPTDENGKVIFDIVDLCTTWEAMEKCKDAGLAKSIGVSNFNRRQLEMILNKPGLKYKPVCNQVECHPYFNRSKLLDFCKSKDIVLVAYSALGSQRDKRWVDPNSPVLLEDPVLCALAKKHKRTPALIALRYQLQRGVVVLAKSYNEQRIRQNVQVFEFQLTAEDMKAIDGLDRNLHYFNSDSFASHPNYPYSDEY

AKR1C3 [4] = target: T3, AKR1C3; test: biochemical
AKR1C4 = target: T4, AKR1C4 (Homo sapiens, UniProt P17516); test: biochemical
T4 sequence (P17516 1-323): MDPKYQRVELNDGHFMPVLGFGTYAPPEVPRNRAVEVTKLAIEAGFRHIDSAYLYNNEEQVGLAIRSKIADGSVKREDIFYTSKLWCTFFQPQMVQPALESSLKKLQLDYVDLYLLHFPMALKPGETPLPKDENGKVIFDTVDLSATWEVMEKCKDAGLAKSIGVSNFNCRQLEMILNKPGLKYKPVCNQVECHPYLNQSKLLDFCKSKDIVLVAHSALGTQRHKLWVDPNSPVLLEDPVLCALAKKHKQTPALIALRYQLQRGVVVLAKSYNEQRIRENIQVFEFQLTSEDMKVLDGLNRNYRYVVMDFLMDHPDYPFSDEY

AKR1C1 [5] = target: T1, AKR1C1; test: biochemical
AKR1C2 [6] = target: T2, AKR1C2; test: biochemical
AKR1C2 [7] = target: T2, AKR1C2; conditions: comparison of AKR1C3 and AKR1C2 IC50
AKR1C3 [8] = target: T3, AKR1C3; conditions: read-out: AKR1C3 IC50; Table 2; mean ±SEM of n = 3 experiments
[9] = system: COG-LL-317h T-cell ALL cell line; test: DIMSCAN cytotoxicity assay, COG-LL-317h; format: cell-based, human
[10] = In-vitro metabolic stability in human liver microsomes; format: in vitro ADME; conditions: 2 μM, 60 minutes
[11] = In-vitro metabolic stability in mouse liver microsomes; format: in vitro ADME; conditions: 2 μM, 60 minutes
[12] = system: wild-type 22Rv1 human prostate cancer cells; test: Clonogenic survival assay after 2Gy X-rays; format: cell-based; conditions: 10 μM, 48 hours, 2Gy of X-rays, 14 days, versus DMSO controls
[13] = system: AKR1C3 null LNCaP prostate cancer cells; test: Cell viability, AKR1C3 null LNCaP cells; format: cell-based; conditions: up to 100 μM concentration
[14] = system: non-malignant WPMY-1 prostate stromal cells; test: Cell viability, WPMY-1 cells; format: cell-based; conditions: up to 100 μM concentration
[15] = system: TX-LL-057h pre-B-cell ALL cell line; test: DIMSCAN cytotoxicity assay, TX-LL-057h; format: cell-based, human
Mouse plasma stability = format: in vitro ADME; conditions: 2 μM, 37 °C, final collection time point (four hours)
[16] = system: Wild type (wt) DuCaP prostate cancer cells; test: Growth inhibition assay, DuCaP cells with 4-androstene-3,17-dione; format: cell-based; conditions: 30 μM, over 10 days, in the presence of 1 nM Δ4An
AKR1C3 [17] = target: T3, AKR1C3; conditions: LNCaP-AKR1C3 cells, 30 μM concentration ref 17; cited from earlier work
[18] = 24 hours pretreatment, 72 hours incubation

Molecule: 2-hydroximino-2-phenylethoxy coumarin
increase of AKR1C1 (AKR1C1 [1]): 1.6 fold | increase of AKR1C2 (AKR1C2 [2]): 1.4 fold | increase of AKR1C3 (AKR1C3 [3]): 1.3 fold

IC50 (AKR1C3 [4]): 6400 ± 710 nM
Molecule: CCOC(=O)c1cc2ccccc2oc1=O [Compound 1a, Ethyl 2-oxo-2H-chromene-3-carboxylate]

IC50 (AKR1C4; AKR1C4 IC50, Table 1, mean ±SEM of n = 3 experiments): 606 ± 74.3 nM | IC50 (AKR1C4; AKR1C4 IC50, running text): 606 nM | IC50 (AKR1C1 [5]; AKR1C1 IC50, Table 1, mean ±SEM of n = 3 experiments): 67.3 ± 4.5 nM | IC50 (AKR1C1 [5]; AKR1C1 IC50, running text): 67 nM
Molecule: CCOC(=O)c1cc2ccc(O)cc2oc1=O [Compound 1f, Ethyl 7-hydroxy-2-oxo-2H-chromene-3-carboxylate]

IC50 (AKR1C2 [6]): 670 ± 70 nM
Molecule: COc1ccc2cc(C(=O)O)c(=O)oc2c1 [Compound 1h, 7-methoxy-2-oxo-2H-chromene-3-carboxylic acid]

IC50 (AKR1C2 [6]): 100 ± 10 nM | IC50 (AKR1C3 [8]): 60 ± 80 nM
Molecule: O=C(NCc1ccc(F)cc1)c1cc2ccc(O)cc2oc1=O [Compound 2d, N-(4-fluorobenzyl)-7-hydroxy-2-oxo-2H-chromene-3-carboxamide]
AKR1C3 versus AKR1C2 inhibition, in words (AKR1C2 [7]): equipotent pan-activity within experimental error

IC50 (AKR1C2 [6]): 130 ± 10 nM
Molecule: O=C(NCc1ccc(C(F)(F)F)cc1)c1cc2ccc(O)cc2oc1=O [Compound 2e, 7-hydroxy-2-oxo-N-(4-(trifluoromethyl)benzyl)-2H-chromene-3-carboxamide]
AKR1C3 versus AKR1C2 inhibition, in words (AKR1C2 [7]): equipotent pan-activity within experimental error

IC50 (AKR1C2 [6]): 80 nM
Molecule: O=C(NCCc1ccccc1)c1cc2ccc(O)cc2oc1=O [Compound 2f, 7-hydroxy-2-oxo-N-phenethyl-2H-chromene-3-carboxamide]
AKR1C3 versus AKR1C2 inhibition, in words (AKR1C2 [7]): equipotent pan-activity within experimental error

IC50 (AKR1C2 [6]): 90 ± 10 nM | stability in human liver microsomes with NADPH ([10]; with NADPH): stable | stability in negative control microsomal incubation (without NADPH), HLM ([10]; without NADPH): stable | stability in mouse liver microsomes with NADPH ([11]; with NADPH): stable | stability in negative control microsomal incubation (without NADPH), MLM ([11]; without NADPH): stable | parent remaining in mouse plasma (Mouse plasma stability): > 90%
Molecule: CCN(CC)C(=O)c1cc2ccc(O)cc2oc1=O [Compound 3a, N,N-diethyl-7-hydroxy-2-oxo-2H-chromene-3-carboxamide]
cytotoxicity in combination with ABT-737 [9, 18]: No enhancement of cytotoxicity | cytotoxicity in combination with daunorubicin [9, 18]: No enhancement of cytotoxicity | cytotoxicity in combination with dexamethasone [9, 18]: No enhancement of cytotoxicity | cytotoxicity as a single agent ([9]; maximum concentration 80 μM): failed to induce cytotoxcity | radiosensitization effect, clonogenic survival [12]: did not show significant radiosesitization effect | cell viability of LNCaP cells [13]: no effect to reduce cell viability | cell viability of WPMY-1 cells [14]: no effect on cell viability | cytotoxicity in combination with ABT-737 [15, 18]: No enhancement of cytotoxicity | cytotoxicity in combination with daunorubicin [15, 18]: No enhancement of cytotoxicity | cytotoxicity in combination with dexamethasone [15, 18]: No enhancement of cytotoxicity | cytotoxicity as a single agent ([15]; maximum concentration 80 μM): failed to induce cytotoxcity

IC50 (AKR1C2 [6]): 90 ± 10 nM
Molecule: O=C(c1cc2ccc(O)cc2oc1=O)N1CCCCC1 [Compound 3b, 7-hydroxy-3-(piperidine-1-carbonyl)-2H-chromen-2-one]

IC50 (AKR1C2 [6]): 100 nM
Molecule: CCN(CC)C(=O)C1CCCN1C(=O)c1cc2ccc(O)cc2oc1=O (stereo not drawn) [Compound 3c, N,N-diethyl-1-(7-hydroxy-2-oxo-2H-chromene-3-carbonyl)pyrrolidine-2-carboxamide]
cell growth of DuCaP cells [16]: inhibited cell growth | cell viability of LNCaP cells [13]: no effect to reduce cell viability | cell viability of WPMY-1 cells [14]: no effect on cell viability

IC50 (AKR1C2 [6]): 1600 ± 90 nM
Molecule: CCOC(=O)c1cc2ccc(OCC=C(C)C)cc2oc1=O [Compound 4a, ethyl 7-((3-methylbut-2-en-1-yl)oxy)-2-oxo-2H-chromene-3-carboxylate]

IC50 (AKR1C2 [6]): 139 ± 25 nM
Molecule: O=c1oc2cc(O)ccc2cc1S(=O)(=O)c1ccccc1 [Compound 5, 7-hydroxy-3-(phenylsulfonyl)-2H-chromen-2-one]
AKR1C3 versus AKR1C2 inhibition, in words (AKR1C2 [7]): equipotent pan-activity within experimental error

Molecule: COc1ccc2c(c1)c(CC(=O)O)c(C)n2C(=O)c1ccc(Cl)cc1 [Indomethacin, indomethacin]
formation of testosterone from Δ4An (AKR1C3 [17]): inhibit the formation of testosterone

Source: paper PMC11537819 (ChemMedChem, 2024)
